# Activity calls are given as the source filed them. No cut-off for these calls is given here.
# Columns and labels:
# Bone marrow cell [1] = assay: Inhibition of osteoclastogenesis in CD1 mouse bone marrow cells at 37 uM added on day 2 and day 4 measured on day 7 by TRAP assay relative to control; format: functional
# Bone marrow cell [2] = assay: Inhibition of osteoclastogenesis in CD1 mouse bone marrow cells at 0.1 to 10 ug/ml added on day 2 and day 4 measured on day 7 by TRAP assay; format: functional, cell-based
# Bone marrow cell [3] = assay: Inhibition of osteoclastogenesis in CD1 mouse bone marrow cells at 5 ug/ml added on day 2 and day 4 measured on day 7 by TRAP assay relative to GW9508; format: functional, cell-based
# Bone marrow cell [4] = assay: Inhibition of osteoclastogenesis in CD1 mouse bone marrow cells at 72 uM added on day 2 and day 4 measured on day 7 by TRAP assay relative to control; format: functional
# Bone marrow cell [5] = assay: Inhibition of osteoclastogenesis in CD1 mouse bone marrow cells at 0.01 ug/ml added on day 2 and day 4 measured on day 7 by TRAP assay relative to control; format: functional
SMILES,inhibition at 37 µM (Bone marrow cell [1]),inhibition (Bone marrow cell [2]),inhibition (Bone marrow cell [3]),inhibition at 72 µM (Bone marrow cell [4]),inhibition at 0.01 µg/mL (Bone marrow cell [5])
CCCCCCCCCCCCCOCC(=O)O,100%,–,–,–,–
CCCCCCCn1cc(CCCCCC(=O)O)nn1,21.5%,Dose-dependent effect,Active,–,–
CCCCCOCCCCCCCCCC(=O)O,100%,inactive,–,–,–
CCCCCCCCCCCCOCCC(=O)O,80.8%,Dose-dependent effect,–,–,–
CCCCCCCCCOCCCCCC(=O)O,100%,inactive,–,–,–
COCCOCCOCCCCCCCC(=O)O,100%,–,–,–,–
CCCOCCCCCCCCCCCC(=O)O,73.2%,Dose-dependent effect,–,–,–
CCCCCCOCCCCCCCCC(=O)O,100%,inactive,–,–,–
O=C(O)CCc1ccc(NCc2cccc(Oc3ccccc3)c2)cc1 [GW9508],–,Dose-dependent effect,–,28.2%,–
CCCCCCCCCn1cc(CCCC(=O)O)nn1,22.2%,Active,–,–,–
CCCCCCCCCCCCCCCC(=O)O [PALMITIC ACID],73.8%,Active,Active,–,–
CCCCCCCCCCC#CCCCCCC(=O)O [OSTEOPROTEGERIN],–,–,–,–,32.6%
CCCCCn1cc(CCCCCCCC(=O)O)nn1,33.8%,–,–,–,–
CCCCCCCCCCn1cc(CCC(=O)O)nn1,26.7%,Active,–,–,–
CCCCCCCCCCOCCCCC(=O)O,65.4%,Dose-dependent effect,–,–,–
CCCCCCCCCCCn1cc(CC(=O)O)nn1,38.8%,–,–,–,–
CCn1cc(CCCCCCCCCCC(=O)O)nn1,16.9%,Dose-dependent effect,Active,–,–

# Reference: ChEMBL document CHEMBL2396534, “Long-chain triazolyl acids as inhibitors of osteoclastogenesis” (2013)
